Experimental data: PubChem BioAssay (NCI)
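GI50 = concentration required for 50% inhibition of growth. At the TGI there is no net growth.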

What was measured:
Test in all cases: NCI tumour cell line growth inhibition, 384-well format
SR leukemia = test system: SR leukemia
SF-539 CNS = test system: SF-539 CNS
CAKI-1 renal = test system: CAKI-1 renal
SNB-75 CNS = test system: SNB-75 CNS
SK-MEL-5 melanoma = test system: SK-MEL-5 melanoma
OVCAR-8 ovarian = test system: OVCAR-8 ovarian
SK-MEL-28 melanoma = test system: SK-MEL-28 melanoma
NCI-H23 lung = test system: NCI-H23 lung
HOP-92 NSCLC = test system: HOP-92 NSCLC
NCI-H226 lung = test system: NCI-H226 lung
DU-145 prostate = test system: DU-145 prostate
EKVX NSCLC = test system: EKVX NSCLC
NCI/ADR-RES ovarian = test system: NCI/ADR-RES ovarian

COc1ccc([C@@H](O)c2cc(-c3ncnc4cc(N5CCOCC5)ccc34)c(F)cc2Cl)nn1
GI50 (SR leukemia): 6.08 µM | TGI (SR leukemia): 19.5 µM | GI50 (SF-539 CNS): 3.38 µM | TGI (SF-539 CNS): 28.4 µM | GI50 (CAKI-1 renal): 1.19 µM | TGI (CAKI-1 renal): 16 µM | GI50 (SNB-75 CNS): 0.668 µM | TGI (SNB-75 CNS): 3.15 µM | GI50 (SK-MEL-5 melanoma): 1.61 µM | TGI (SK-MEL-5 melanoma): 5.92 µM | GI50 (OVCAR-8 ovarian): 3.97 µM | TGI (OVCAR-8 ovarian): 22.4 µM | GI50 (SK-MEL-28 melanoma): 2.39 µM | TGI (SK-MEL-28 melanoma): 27.8 µM | GI50 (NCI-H23 lung): 2.49 µM | TGI (NCI-H23 lung): 14.9 µM | GI50 (HOP-92 NSCLC): 0.583 µM | TGI (HOP-92 NSCLC): 5.19 µM | GI50 (NCI-H226 lung): 3.64 µM | TGI (NCI-H226 lung): 24.6 µM | GI50 (DU-145 prostate): 4.21 µM | TGI (DU-145 prostate): 18.8 µM | GI50 (EKVX NSCLC): 1.54 µM | TGI (EKVX NSCLC): 10.7 µM | GI50 (NCI/ADR-RES ovarian): 3.97 µM | TGI (NCI/ADR-RES ovarian): 17.6 µM
